For 1 compound, inhibition results are on record in paper PMC11576293, “New series of 4,6-diaryl pyrimidines: facile synthesis and antiproliferative activity as dual EGFR/VEGFR-2 inhibitors” (Frontiers in Chemistry, 2024).

By inhibition is commonly meant how much of the control response was suppressed.

Molecules are shown by their SMILES.

For the first assay, the system named is SF-539. The assay can be described thus: NCI-60 single-dose screen. To be noted: Homo sapiens, single dose 10 µM, '-' = no inhibition, read-out: % Growth Inhibition. Format: cell-based. The essentials: (§1)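 NCI Developmental Therapeutics Program screen across 60 human cancer cell lines from nine tumor types; compounds tested at a single dose of 10 μM.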
For `COc1ccc(-c2cc(-c3ccc(Cl)cc3)nc(SC)n2)cc1OC` [Compound 23, 4-(4-Chlorophenyl)-6-(3,4-dimethoxyphenyl)-2-(methylthio)pyrimidine], the inhibition at 10 µM is 15.7%.

A further assay deals with A549/ATCC. The assay is described as follows: NCI-60 single-dose screen. Format: cell-based. The settings on record: Homo sapiens, single dose 10 µM, '-' = no inhibition, read-out: % Growth Inhibition. The method in brief: as §1
As to `COc1ccc(-c2cc(-c3ccc(Cl)cc3)nc(SC)n2)cc1OC` [Compound 23, 4-(4-Chlorophenyl)-6-(3,4-dimethoxyphenyl)-2-(methylthio)pyrimidine], the inhibition at 10 µM is 19.8%.

Another assay concerns PC-3. The assay is described as follows: NCI-60 single-dose screen. Format: cell-based. The settings on record: Homo sapiens, single dose 10 µM, '-' = no inhibition, read-out: % Growth Inhibition. The essentials: as §1
As to `COc1ccc(-c2cc(-c3ccc(Cl)cc3)nc(SC)n2)cc1OC` [Compound 23, 4-(4-Chlorophenyl)-6-(3,4-dimethoxyphenyl)-2-(methylthio)pyrimidine], the inhibition at 10 µM turned out to be 15.7%.

Another assay relates to IGROV1. The assay can be described thus: NCI-60 single-dose screen. Format: cell-based. To be noted: Homo sapiens, IGROV-1, single dose 10 µM, '-' = no inhibition, read-out: % Growth Inhibition. The essentials:
as §1
Turning to `COc1ccc(-c2cc(-c3ccc(Cl)cc3)nc(SC)n2)cc1OC` [Compound 23, 4-(4-Chlorophenyl)-6-(3,4-dimethoxyphenyl)-2-(methylthio)pyrimidine], the inhibition at 10 µM was less than 0%.

Another assay relates to SK-MEL-5. The assay is described as follows: NCI-60 single-dose screen. The assay is classed as cell-based. The settings on record: Homo sapiens, single dose 10 µM, '-' = no inhibition, read-out: % Growth Inhibition. The essentials:
as §1
`COc1ccc(-c2cc(-c3ccc(Cl)cc3)nc(SC)n2)cc1OC` [Compound 23, 4-(4-Chlorophenyl)-6-(3,4-dimethoxyphenyl)-2-(methylthio)pyrimidine]: the inhibition at 10 µM amounted to 24.5%.

For the next assay, the system named is NCI-H23. The assay is described as follows: NCI-60 single-dose screen. The assay is classed as cell-based. The settings on record: Homo sapiens, single dose 10 µM, '-' = no inhibition, read-out: % Growth Inhibition. The essentials:
as §1
`COc1ccc(-c2cc(-c3ccc(Cl)cc3)nc(SC)n2)cc1OC` [Compound 23, 4-(4-Chlorophenyl)-6-(3,4-dimethoxyphenyl)-2-(methylthio)pyrimidine]: the inhibition at 10 µM is 7.41%.

The test system of the next assay is M14. The assay can be described thus: NCI-60 single-dose screen. The assay is classed as cell-based. To be noted: Homo sapiens, single dose 10 µM, '-' = no inhibition, read-out: % Growth Inhibition. The method in brief: as §1
As for `COc1ccc(-c2cc(-c3ccc(Cl)cc3)nc(SC)n2)cc1OC` [Compound 23, 4-(4-Chlorophenyl)-6-(3,4-dimethoxyphenyl)-2-(methylthio)pyrimidine], the inhibition at 10 µM was determined as 0.3%.

The subject of the next assay is CCRF-CEM. The assay is described as follows: NCI-60 single-dose screen. The settings on record: Homo sapiens, single dose 10 µM, '-' = no inhibition, read-out: % Growth Inhibition. The assay is classed as cell-based. The essentials: as §1
`COc1ccc(-c2cc(-c3ccc(Cl)cc3)nc(SC)n2)cc1OC` [Compound 23, 4-(4-Chlorophenyl)-6-(3,4-dimethoxyphenyl)-2-(methylthio)pyrimidine]: the inhibition at 10 µM is 17.9%.

Another assay relates to OVCAR-5. The assay is described as follows: NCI-60 single-dose screen. To be noted: Homo sapiens, single dose 10 µM, '-' = no inhibition, read-out: % Growth Inhibition. Format: cell-based. The essentials: as §1
For the compound `COc1ccc(-c2cc(-c3ccc(Cl)cc3)nc(SC)n2)cc1OC` [Compound 23, 4-(4-Chlorophenyl)-6-(3,4-dimethoxyphenyl)-2-(methylthio)pyrimidine], the inhibition at 10 µM worked out at 11.9%.

A further assay relates to NCI-H460. The assay can be described thus: NCI-60 single-dose screen. The assay is classed as cell-based. The settings on record: Homo sapiens, single dose 10 µM, '-' = no inhibition, read-out: % Growth Inhibition. The essentials:
as §1
As to `COc1ccc(-c2cc(-c3ccc(Cl)cc3)nc(SC)n2)cc1OC` [Compound 23, 4-(4-Chlorophenyl)-6-(3,4-dimethoxyphenyl)-2-(methylthio)pyrimidine], the inhibition at 10 µM was 11.4%.

A further assay deals with SK-MEL-28. The assay is described as follows: NCI-60 single-dose screen. Format: cell-based. To be noted: Homo sapiens, single dose 10 µM, '-' = no inhibition, read-out: % Growth Inhibition. The essentials: as §1
With `COc1ccc(-c2cc(-c3ccc(Cl)cc3)nc(SC)n2)cc1OC` [Compound 23, 4-(4-Chlorophenyl)-6-(3,4-dimethoxyphenyl)-2-(methylthio)pyrimidine], the inhibition at 10 µM was 8.87%.

For the next assay, the system named is K-562. The assay can be described thus: NCI-60 single-dose screen. The assay is classed as cell-based. To be noted: Homo sapiens, K562, single dose 10 µM, '-' = no inhibition, read-out: % Growth Inhibition. The method in brief: as §1
Consider `COc1ccc(-c2cc(-c3ccc(Cl)cc3)nc(SC)n2)cc1OC` [Compound 23, 4-(4-Chlorophenyl)-6-(3,4-dimethoxyphenyl)-2-(methylthio)pyrimidine], for which the inhibition at 10 µM amounted to 39%.

The test system of a further assay is SNB-19. The assay is described as follows: NCI-60 single-dose screen. Format: cell-based. The settings on record: Homo sapiens, single dose 10 µM, '-' = no inhibition, read-out: % Growth Inhibition. The essentials: as §1
For `COc1ccc(-c2cc(-c3ccc(Cl)cc3)nc(SC)n2)cc1OC` [Compound 23, 4-(4-Chlorophenyl)-6-(3,4-dimethoxyphenyl)-2-(methylthio)pyrimidine], the inhibition at 10 µM is 3.67%.

The next assay relates to ACHN 1. The assay is described as follows: NCI-60 single-dose screen. The assay is classed as cell-based. The settings on record: Homo sapiens, single dose 10 µM, '-' = no inhibition, read-out: % Growth Inhibition. The method in brief: as §1
Take `COc1ccc(-c2cc(-c3ccc(Cl)cc3)nc(SC)n2)cc1OC` [Compound 23, 4-(4-Chlorophenyl)-6-(3,4-dimethoxyphenyl)-2-(methylthio)pyrimidine]: the inhibition at 10 µM worked out at 9.14%.

A further assay concerns MDA-MB231/ATCC. The assay can be described thus: NCI-60 single-dose screen. The assay is classed as cell-based. To be noted: Homo sapiens, MDA-MB-231, single dose 10 µM, '-' = no inhibition, read-out: % Growth Inhibition. The method in brief: as §1
Consider `COc1ccc(-c2cc(-c3ccc(Cl)cc3)nc(SC)n2)cc1OC` [Compound 23, 4-(4-Chlorophenyl)-6-(3,4-dimethoxyphenyl)-2-(methylthio)pyrimidine], for which the inhibition at 10 µM turned out to be 23.2%.

Another assay deals with HL-60(TB). The assay can be described thus: NCI-60 single-dose screen. To be noted: Homo sapiens, single dose 10 µM, '-' = no inhibition, read-out: % Growth Inhibition. The assay is classed as cell-based.
`COc1ccc(-c2cc(-c3ccc(Cl)cc3)nc(SC)n2)cc1OC` [Compound 23, 4-(4-Chlorophenyl)-6-(3,4-dimethoxyphenyl)-2-(methylthio)pyrimidine]: the inhibition at 10 µM was determined as 18.4%.

A further assay relates to EKVX. The assay is described as follows: NCI-60 single-dose screen. Format: cell-based. To be noted: Homo sapiens, single dose 10 µM, '-' = no inhibition, read-out: % Growth Inhibition. The method in brief: as §1
With `COc1ccc(-c2cc(-c3ccc(Cl)cc3)nc(SC)n2)cc1OC` [Compound 23, 4-(4-Chlorophenyl)-6-(3,4-dimethoxyphenyl)-2-(methylthio)pyrimidine], the inhibition at 10 µM is 23.1%.

Another assay concerns OVCAR-8. The assay is described as follows: NCI-60 single-dose screen. The assay is classed as cell-based. To be noted: Homo sapiens, single dose 10 µM, '-' = no inhibition, read-out: % Growth Inhibition. The essentials: as §1
With `COc1ccc(-c2cc(-c3ccc(Cl)cc3)nc(SC)n2)cc1OC` [Compound 23, 4-(4-Chlorophenyl)-6-(3,4-dimethoxyphenyl)-2-(methylthio)pyrimidine], the inhibition at 10 µM is 3.78%.

In another assay the test system is NCI/ADR-RES. The assay can be described thus: NCI-60 single-dose screen. The assay is classed as cell-based. To be noted: Homo sapiens, single dose 10 µM, '-' = no inhibition, read-out: % Growth Inhibition. The essentials:
as §1
Turning to `COc1ccc(-c2cc(-c3ccc(Cl)cc3)nc(SC)n2)cc1OC` [Compound 23, 4-(4-Chlorophenyl)-6-(3,4-dimethoxyphenyl)-2-(methylthio)pyrimidine], the inhibition at 10 µM was 14.9%.

In another assay the test system is 786-0. The assay is described as follows: NCI-60 single-dose screen. The assay is classed as cell-based. The settings on record: Homo sapiens, single dose 10 µM, '-' = no inhibition, read-out: % Growth Inhibition. The method in brief:
as §1
As for `COc1ccc(-c2cc(-c3ccc(Cl)cc3)nc(SC)n2)cc1OC` [Compound 23, 4-(4-Chlorophenyl)-6-(3,4-dimethoxyphenyl)-2-(methylthio)pyrimidine], the inhibition at 10 µM stood at 6.05%.

For the next assay, the system named is SNB-75. The assay can be described thus: NCI-60 single-dose screen. The assay is classed as cell-based. To be noted: Homo sapiens, single dose 10 µM, '-' = no inhibition, read-out: % Growth Inhibition. The essentials: as §1
Regarding `COc1ccc(-c2cc(-c3ccc(Cl)cc3)nc(SC)n2)cc1OC` [Compound 23, 4-(4-Chlorophenyl)-6-(3,4-dimethoxyphenyl)-2-(methylthio)pyrimidine], the inhibition at 10 µM was less than 0%.

The test system of a further assay is MALME-3M. The assay can be described thus: NCI-60 single-dose screen. The assay is classed as cell-based. To be noted: Homo sapiens, single dose 10 µM, '-' = no inhibition, read-out: % Growth Inhibition. The essentials:
as §1
For `COc1ccc(-c2cc(-c3ccc(Cl)cc3)nc(SC)n2)cc1OC` [Compound 23, 4-(4-Chlorophenyl)-6-(3,4-dimethoxyphenyl)-2-(methylthio)pyrimidine], the inhibition at 10 µM was less than 0%.

The test system of another assay is LOX IMVI. The assay is described as follows: NCI-60 single-dose screen. The assay is classed as cell-based. To be noted: Homo sapiens, single dose 10 µM, '-' = no inhibition, read-out: % Growth Inhibition. The method in brief: as §1
In the case of `COc1ccc(-c2cc(-c3ccc(Cl)cc3)nc(SC)n2)cc1OC` [Compound 23, 4-(4-Chlorophenyl)-6-(3,4-dimethoxyphenyl)-2-(methylthio)pyrimidine], the inhibition at 10 µM was 15%.
